Literature values, collected in patent US7459460B2, “Trisubstituted heteroaromatic compounds as calcium sensing receptor modulators” (Bristol-Myers Squibb Company, priority 2003, dated 2008).

Columns and labels:
[1] = intravenous bolus injection
[2] = OVX rats, oral administration, in the presence of an anti-resorptive agent
[3] = postmenopausal women, placebo-controlled trial

CC(C)(Cc1ccc2ccccc2c1)NC[C@@H](O)COc1cccc(Cl)c1C#N [NPS-2143]
serum PTH [1]: transient increase in serum PTH | bone mass [2]: increase in bone mass

PTH peptide fragment (1-34): the PTH peptide fragment (1-34) of parathyroid hormone (SVSEIQLMHNLGKHLNSMERVEWLRKKLQDVHNF; Parathyroid hormone; UniProt P01270 32-65, looked up, fragment)
reduce the risk of non-traumatic, non-spine fractures [3]: 54% | reduce the risk of spine fractures [3]: 65%
